Data on one compound can be found in PMC8924359, “ZDQ-0620, a Novel Phosphatidylinositol 3-Kinase Inhibitor, Inhibits Colorectal Carcinoma Cell Proliferation and Suppresses Angiogenesis by Attenuating PI3K/AKT/mTOR Pathway” (Frontiers in Oncology, 2022).

Structures are written as SMILES. pIC50: −log10 of the molar value.

Usually pIC50 stands for the IC50 on a negative log10 scale, so that one unit is a factor of ten. Read a high pIC50 as a small IC50.

What all share (assay type): biochemical
One assay has as its target T1, PI3Kγ (Homo sapiens, UniProt P48736).
T1 construct: gene PIK3CG
As to the kind of experiment: ADP-Glo lipid kinase assay. The source says:
ADP-Glo lipid kinase assay on PI3Kγ | IC50 of ZDQ-0620 against PI3K kinase in vitro.
A general note: ADP-Glo turns the ADP formed in a reaction into a luminescent signal.

A further assay has as its target T2, PI3Kβ (Homo sapiens, UniProt P42338).
T2 construct: gene PIK3CB
As to the kind of experiment: ADP-Glo lipid kinase assay; supported by CETSA in HCT116 cells (weaker than PI3Kα). The source says:
ADP-Glo lipid kinase assay; supported by CETSA in HCT116 cells (weaker than PI3Kα) on PI3Kβ | IC50 of ZDQ-0620 against PI3K kinase in vitro.

In a further assay the target is T3, PI3Kα (Homo sapiens, UniProt P42336).
T3 construct: gene PIK3CA
T3 sequence (P42336 whole entry): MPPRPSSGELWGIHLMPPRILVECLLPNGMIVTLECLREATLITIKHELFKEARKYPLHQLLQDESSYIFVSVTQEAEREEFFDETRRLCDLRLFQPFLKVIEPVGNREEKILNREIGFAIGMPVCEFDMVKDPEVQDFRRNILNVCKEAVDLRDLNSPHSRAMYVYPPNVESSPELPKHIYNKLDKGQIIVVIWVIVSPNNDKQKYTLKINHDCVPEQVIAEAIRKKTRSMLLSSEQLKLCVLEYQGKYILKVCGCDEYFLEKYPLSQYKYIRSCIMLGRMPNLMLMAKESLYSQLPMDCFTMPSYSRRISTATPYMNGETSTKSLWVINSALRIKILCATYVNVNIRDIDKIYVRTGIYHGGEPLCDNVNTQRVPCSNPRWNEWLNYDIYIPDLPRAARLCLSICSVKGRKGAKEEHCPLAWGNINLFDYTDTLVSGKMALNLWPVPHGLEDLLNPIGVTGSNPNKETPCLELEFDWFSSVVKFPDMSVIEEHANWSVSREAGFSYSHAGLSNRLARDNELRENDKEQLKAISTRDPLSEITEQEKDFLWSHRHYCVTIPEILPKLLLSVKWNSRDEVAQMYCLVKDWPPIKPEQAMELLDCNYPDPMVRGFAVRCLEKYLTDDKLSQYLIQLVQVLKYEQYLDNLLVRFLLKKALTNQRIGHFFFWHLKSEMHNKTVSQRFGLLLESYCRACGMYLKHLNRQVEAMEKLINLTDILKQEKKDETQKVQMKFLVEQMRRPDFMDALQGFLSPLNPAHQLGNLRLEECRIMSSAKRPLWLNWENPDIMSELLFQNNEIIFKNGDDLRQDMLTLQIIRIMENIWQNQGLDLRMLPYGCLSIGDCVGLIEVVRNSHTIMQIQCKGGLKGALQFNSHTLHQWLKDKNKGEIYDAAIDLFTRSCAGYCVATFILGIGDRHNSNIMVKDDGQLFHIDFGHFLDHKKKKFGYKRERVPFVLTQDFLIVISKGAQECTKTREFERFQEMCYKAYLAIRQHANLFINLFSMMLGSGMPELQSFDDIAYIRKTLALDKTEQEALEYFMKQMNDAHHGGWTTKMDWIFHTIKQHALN
Description: ADP-Glo lipid kinase assay; supported by CETSA/ITDRF-CETSA in HCT116 cells.

Another assay concerns the target T4, PI3Kδ (Homo sapiens, UniProt O00329).
T4 construct: gene PIK3CD
T4 sequence (O00329 1-1044): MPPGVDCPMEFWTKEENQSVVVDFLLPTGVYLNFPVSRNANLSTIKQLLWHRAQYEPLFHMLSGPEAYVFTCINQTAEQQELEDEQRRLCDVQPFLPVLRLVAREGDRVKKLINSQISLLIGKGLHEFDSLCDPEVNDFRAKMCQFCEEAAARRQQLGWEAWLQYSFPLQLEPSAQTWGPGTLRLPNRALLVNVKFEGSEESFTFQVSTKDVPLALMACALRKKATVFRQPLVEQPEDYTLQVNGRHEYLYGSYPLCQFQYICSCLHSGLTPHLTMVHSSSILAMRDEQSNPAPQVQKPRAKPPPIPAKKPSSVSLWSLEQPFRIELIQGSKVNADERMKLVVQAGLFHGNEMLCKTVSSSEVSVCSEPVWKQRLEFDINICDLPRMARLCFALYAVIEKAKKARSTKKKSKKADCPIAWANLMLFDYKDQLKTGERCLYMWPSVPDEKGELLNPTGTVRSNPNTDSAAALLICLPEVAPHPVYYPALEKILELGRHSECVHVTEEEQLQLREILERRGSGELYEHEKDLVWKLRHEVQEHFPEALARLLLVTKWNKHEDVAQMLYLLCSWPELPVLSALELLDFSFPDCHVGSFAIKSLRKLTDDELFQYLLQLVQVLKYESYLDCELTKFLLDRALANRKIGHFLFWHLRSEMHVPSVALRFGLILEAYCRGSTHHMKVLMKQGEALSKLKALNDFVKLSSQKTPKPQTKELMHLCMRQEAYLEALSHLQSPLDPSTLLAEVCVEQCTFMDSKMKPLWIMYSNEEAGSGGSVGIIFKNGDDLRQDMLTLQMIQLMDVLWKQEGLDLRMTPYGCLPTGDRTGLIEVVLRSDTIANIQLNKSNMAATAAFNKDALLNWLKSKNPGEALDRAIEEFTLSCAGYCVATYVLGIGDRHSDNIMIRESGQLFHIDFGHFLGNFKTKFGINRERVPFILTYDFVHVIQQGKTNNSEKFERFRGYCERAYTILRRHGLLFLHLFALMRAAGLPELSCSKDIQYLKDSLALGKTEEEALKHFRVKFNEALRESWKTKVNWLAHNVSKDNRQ
As to the kind of experiment: ADP-Glo lipid kinase assay. An excerpt:
ADP-Glo lipid kinase assay on PI3Kδ | IC50 of ZDQ-0620 against PI3K kinase in vitro.

T2 sequence (P42338 whole entry): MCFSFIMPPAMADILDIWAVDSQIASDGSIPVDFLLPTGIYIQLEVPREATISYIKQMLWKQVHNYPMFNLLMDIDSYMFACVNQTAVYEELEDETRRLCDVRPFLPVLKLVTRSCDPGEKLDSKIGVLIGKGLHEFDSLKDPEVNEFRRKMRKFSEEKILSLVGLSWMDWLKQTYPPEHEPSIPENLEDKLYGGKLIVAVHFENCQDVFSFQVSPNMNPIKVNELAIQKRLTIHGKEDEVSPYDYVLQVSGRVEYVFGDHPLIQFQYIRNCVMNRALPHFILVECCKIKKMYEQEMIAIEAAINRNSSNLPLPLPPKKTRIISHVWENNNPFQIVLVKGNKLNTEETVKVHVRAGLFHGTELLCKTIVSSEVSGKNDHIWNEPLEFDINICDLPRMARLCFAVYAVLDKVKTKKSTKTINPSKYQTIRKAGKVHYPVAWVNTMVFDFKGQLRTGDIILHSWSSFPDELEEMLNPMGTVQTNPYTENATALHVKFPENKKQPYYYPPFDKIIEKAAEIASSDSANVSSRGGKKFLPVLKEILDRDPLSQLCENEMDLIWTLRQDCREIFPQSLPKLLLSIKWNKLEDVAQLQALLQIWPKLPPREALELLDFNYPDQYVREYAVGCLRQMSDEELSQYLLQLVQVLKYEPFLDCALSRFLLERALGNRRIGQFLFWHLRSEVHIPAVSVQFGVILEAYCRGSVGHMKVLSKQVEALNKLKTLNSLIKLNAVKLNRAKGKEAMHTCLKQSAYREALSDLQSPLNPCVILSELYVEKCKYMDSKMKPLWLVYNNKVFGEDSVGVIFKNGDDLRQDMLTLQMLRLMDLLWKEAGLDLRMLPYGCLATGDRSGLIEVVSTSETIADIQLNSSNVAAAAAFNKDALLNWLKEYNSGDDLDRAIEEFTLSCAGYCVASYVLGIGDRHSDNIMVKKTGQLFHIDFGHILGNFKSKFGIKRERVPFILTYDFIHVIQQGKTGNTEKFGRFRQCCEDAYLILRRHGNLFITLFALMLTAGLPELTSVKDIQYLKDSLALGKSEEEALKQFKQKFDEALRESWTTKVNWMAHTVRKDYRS
T1 sequence (P48736 whole entry): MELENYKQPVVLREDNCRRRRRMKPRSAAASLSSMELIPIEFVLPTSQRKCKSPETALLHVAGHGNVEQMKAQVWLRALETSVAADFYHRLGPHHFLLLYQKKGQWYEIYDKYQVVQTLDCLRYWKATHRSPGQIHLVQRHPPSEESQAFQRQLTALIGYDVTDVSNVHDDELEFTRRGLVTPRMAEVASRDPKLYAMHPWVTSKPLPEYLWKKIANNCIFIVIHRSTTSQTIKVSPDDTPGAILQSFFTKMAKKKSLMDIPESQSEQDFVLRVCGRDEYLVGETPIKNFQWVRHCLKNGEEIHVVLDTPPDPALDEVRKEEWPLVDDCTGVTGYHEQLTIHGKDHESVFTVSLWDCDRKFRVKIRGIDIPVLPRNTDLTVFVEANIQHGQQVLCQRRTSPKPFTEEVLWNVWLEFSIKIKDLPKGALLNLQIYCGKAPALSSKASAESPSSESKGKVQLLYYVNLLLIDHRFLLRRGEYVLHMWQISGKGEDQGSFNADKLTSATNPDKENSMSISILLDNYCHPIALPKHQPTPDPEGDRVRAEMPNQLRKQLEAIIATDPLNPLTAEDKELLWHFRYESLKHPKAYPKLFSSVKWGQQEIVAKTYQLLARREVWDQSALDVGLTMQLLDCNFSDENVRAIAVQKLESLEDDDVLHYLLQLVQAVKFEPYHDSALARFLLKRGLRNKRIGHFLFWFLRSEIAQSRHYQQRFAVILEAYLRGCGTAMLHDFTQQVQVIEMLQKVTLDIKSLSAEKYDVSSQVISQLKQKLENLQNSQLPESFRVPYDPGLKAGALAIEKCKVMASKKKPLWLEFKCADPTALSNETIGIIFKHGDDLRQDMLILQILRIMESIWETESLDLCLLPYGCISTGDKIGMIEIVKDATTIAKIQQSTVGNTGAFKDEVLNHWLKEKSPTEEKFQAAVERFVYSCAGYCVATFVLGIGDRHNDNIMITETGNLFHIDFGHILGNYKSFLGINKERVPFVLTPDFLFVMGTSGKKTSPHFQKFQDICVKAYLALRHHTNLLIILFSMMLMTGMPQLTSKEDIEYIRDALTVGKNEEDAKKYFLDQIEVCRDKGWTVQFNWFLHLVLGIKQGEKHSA

Turning to `COc1ncc(-c2ccc3c(c2)N(CCCN2CCOCC2)C(=O)CO3)cc1NS(=O)(=O)c1ccc(F)cc1F` [ZDQ-0620, 2,4-difluoro-N-(2-methoxy-5-(4-(3-morpholinopropyl)-3-oxo-3,4-dihydro-2H-benzo[b][1,4]oxazin-6-yl)pyridin-3-yl)benzenesulfonamide], the pIC50 against PI3Kγ was 7.26; on PI3Kβ, 7.03; on PI3Kα, 9.30; against PI3Kδ, 6.82.
